What was measured:
Test in all cases: radiometric filter-binding kinase assay, Kinaseprofiler
IKBKB (human) = IKBKB (human) (UniProt O14920); conditions: ATP 10 µM
PRKCA (human) = PRKCA (human) (UniProt P17252); conditions: ATP 45 µM
CSNK1G2 (human) = CSNK1G2 (human) (UniProt P78368); conditions: ATP 10 µM
DAPK1 (human) = DAPK1 (human) (UniProt P53355); conditions: ATP 70 µM
WNK2 (human) = WNK2 (human) (UniProt Q9Y3S1); conditions: ATP 200 µM
NTRK2 (human) = NTRK2 (human) (UniProt Q16620); conditions: ATP 90 µM
EPHB3 (human) = EPHB3 (human) (UniProt P54753); conditions: ATP 90 µM
PAK6 (human) = PAK6 (human) (UniProt Q9NQU5); conditions: ATP 10 µM
[1] = target: JAK2 JH1 catalytic (human) (UniProt O60674); conditions: ATP 45 µM
TSSK2 (human) = TSSK2 (human) (UniProt Q96PF2); conditions: ATP 15 µM
STK17A (human) = STK17A (human) (UniProt Q9UEE5); conditions: ATP 10 µM
PLK2 (human) = PLK2 (human) (UniProt Q9NYY3); conditions: ATP 120 µM
PTK6 (human) = PTK6 (human) (UniProt Q13882); conditions: ATP 15 µM
MST1R (human) = MST1R (human) (UniProt Q04912); conditions: ATP 70 µM
MAPK12 (human) = MAPK12 (human) (UniProt P53778); conditions: ATP 15 µM
RET (human) = RET (human) (UniProt P07949); conditions: ATP 70 µM
MTOR (human) = MTOR (human) (UniProt P42345); conditions: ATP 70 µM
MAPK8 (human) = MAPK8 (human) (UniProt P45983); conditions: ATP 45 µM
ZAP70 (human) = ZAP70 (human) (UniProt P43403); conditions: ATP 15 µM
MUSK (human) = MUSK (human) (UniProt O15146); conditions: ATP 155 µM
TBK1 (human) = TBK1 (human) (UniProt Q9UHD2); conditions: ATP 155 µM
GCK (human) = GCK (human) (UniProt Q12851); conditions: ATP 200 µM
BMX (human) = BMX (human) (UniProt P51813); conditions: ATP 45 µM
CDK5 CDK5R1 p25 (human) = CDK5 CDK5R1 p25 (human) (UniProt Q00535+Q15078); conditions: ATP 15 µM
ABL1 (human) = ABL1 (human) (UniProt P00519); conditions: ATP 10 µM
CDC42BPA (human) = CDC42BPA (human) (UniProt Q5VT25); conditions: ATP 45 µM
PTK2 (human) = PTK2 (human) (UniProt Q05397); conditions: ATP 70 µM
KIT (human) = KIT (human) (UniProt P10721); conditions: ATP 200 µM
GRK7 (human) = GRK7 (human) (UniProt Q8WTQ7); conditions: ATP 15 µM
RIPK2 (human) = RIPK2 (human) (UniProt O43353); conditions: ATP 120 µM
AURKB (human) = AURKB (human) (UniProt Q96GD4); conditions: ATP 10 µM
CSK (human) = CSK (human) (UniProt P41240); conditions: ATP 15 µM
PRKCD (human) = PRKCD (human) (UniProt Q05655); conditions: ATP 15 µM
PRKCD (human), sequence (Q05655 whole entry, looked up): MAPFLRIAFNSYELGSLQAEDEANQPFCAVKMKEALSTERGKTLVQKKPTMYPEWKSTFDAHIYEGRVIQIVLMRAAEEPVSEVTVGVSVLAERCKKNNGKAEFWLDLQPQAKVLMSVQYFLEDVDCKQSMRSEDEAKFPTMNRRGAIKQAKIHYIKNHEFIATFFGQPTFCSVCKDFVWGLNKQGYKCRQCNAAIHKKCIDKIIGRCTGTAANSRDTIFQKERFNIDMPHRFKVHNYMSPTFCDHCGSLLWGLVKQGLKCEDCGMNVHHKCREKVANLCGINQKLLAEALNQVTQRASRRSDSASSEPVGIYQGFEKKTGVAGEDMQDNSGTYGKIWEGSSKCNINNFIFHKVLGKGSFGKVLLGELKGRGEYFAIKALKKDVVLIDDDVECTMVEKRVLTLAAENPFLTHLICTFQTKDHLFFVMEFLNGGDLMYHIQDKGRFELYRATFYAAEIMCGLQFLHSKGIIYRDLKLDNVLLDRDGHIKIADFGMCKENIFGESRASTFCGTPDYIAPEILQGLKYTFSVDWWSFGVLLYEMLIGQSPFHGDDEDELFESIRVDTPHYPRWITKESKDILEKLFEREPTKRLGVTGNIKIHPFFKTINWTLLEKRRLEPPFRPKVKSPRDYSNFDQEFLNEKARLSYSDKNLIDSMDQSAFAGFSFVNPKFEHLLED

CDC42BPA (human), sequence (Q5VT25 whole entry, looked up): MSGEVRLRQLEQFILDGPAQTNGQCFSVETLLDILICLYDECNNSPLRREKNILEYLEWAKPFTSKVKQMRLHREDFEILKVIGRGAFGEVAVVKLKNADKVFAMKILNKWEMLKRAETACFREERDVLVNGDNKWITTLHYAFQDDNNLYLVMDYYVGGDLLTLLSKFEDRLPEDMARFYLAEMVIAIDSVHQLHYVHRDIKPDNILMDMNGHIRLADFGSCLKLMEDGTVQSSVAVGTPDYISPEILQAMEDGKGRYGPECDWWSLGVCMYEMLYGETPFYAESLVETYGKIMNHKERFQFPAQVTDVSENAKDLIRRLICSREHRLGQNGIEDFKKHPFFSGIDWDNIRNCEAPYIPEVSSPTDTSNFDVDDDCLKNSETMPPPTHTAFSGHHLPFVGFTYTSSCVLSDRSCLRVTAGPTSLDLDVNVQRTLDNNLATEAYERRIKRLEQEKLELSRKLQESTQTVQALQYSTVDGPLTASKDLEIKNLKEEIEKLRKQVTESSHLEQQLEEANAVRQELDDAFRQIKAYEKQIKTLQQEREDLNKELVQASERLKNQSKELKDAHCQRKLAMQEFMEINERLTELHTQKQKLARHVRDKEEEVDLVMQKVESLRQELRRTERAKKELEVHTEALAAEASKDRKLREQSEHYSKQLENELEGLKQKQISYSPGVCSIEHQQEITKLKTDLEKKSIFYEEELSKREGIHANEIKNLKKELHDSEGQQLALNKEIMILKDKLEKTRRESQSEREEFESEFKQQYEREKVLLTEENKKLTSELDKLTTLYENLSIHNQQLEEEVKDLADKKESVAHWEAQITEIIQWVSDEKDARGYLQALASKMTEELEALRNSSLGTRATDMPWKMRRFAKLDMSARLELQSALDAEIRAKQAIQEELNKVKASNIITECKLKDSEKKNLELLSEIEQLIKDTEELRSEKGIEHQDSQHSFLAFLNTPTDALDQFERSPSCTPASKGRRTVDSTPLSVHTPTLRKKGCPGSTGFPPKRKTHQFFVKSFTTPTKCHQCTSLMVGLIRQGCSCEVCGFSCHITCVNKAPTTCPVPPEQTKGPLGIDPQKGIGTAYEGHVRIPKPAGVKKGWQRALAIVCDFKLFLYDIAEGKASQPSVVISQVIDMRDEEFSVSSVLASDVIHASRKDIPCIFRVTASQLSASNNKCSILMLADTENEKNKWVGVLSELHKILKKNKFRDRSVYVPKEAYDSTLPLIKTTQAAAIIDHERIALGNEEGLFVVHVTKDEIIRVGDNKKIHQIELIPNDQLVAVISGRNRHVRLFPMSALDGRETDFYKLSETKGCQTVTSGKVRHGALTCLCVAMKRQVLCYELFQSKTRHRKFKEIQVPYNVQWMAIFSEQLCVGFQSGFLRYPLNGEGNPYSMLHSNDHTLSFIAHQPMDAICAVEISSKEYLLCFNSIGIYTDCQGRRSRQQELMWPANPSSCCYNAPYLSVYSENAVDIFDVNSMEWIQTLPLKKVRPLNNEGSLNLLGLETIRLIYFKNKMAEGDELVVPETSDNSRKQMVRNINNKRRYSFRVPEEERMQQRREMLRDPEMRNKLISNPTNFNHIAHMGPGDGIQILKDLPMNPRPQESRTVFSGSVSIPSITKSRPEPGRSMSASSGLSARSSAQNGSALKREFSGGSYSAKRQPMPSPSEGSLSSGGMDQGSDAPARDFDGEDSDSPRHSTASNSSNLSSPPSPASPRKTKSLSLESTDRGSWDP
MAPK8 (human), sequence (P45983 whole entry, looked up): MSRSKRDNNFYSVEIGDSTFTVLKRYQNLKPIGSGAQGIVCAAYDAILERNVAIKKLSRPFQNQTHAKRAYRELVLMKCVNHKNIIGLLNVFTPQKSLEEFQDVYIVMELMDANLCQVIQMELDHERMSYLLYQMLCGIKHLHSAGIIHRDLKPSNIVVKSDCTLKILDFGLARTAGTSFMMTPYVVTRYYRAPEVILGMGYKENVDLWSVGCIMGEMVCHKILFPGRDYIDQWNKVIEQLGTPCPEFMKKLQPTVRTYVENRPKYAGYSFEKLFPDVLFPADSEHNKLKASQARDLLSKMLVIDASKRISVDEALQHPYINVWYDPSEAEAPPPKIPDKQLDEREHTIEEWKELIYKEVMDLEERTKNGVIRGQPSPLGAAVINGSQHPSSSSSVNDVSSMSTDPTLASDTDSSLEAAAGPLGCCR
PTK6 (human), sequence (Q13882 whole entry, looked up): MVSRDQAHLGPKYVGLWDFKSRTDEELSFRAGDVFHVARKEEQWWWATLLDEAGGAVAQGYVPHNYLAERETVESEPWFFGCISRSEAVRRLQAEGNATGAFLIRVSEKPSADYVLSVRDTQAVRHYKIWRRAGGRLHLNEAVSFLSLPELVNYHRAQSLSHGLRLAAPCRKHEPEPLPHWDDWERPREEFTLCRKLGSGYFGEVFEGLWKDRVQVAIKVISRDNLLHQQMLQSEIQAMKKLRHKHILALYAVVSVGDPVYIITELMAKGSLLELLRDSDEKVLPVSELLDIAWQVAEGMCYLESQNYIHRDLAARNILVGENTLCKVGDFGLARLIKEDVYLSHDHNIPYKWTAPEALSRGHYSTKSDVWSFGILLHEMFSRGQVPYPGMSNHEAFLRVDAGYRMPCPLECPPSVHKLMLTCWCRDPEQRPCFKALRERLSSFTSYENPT
ABL1 (human), sequence (P00519 whole entry, looked up): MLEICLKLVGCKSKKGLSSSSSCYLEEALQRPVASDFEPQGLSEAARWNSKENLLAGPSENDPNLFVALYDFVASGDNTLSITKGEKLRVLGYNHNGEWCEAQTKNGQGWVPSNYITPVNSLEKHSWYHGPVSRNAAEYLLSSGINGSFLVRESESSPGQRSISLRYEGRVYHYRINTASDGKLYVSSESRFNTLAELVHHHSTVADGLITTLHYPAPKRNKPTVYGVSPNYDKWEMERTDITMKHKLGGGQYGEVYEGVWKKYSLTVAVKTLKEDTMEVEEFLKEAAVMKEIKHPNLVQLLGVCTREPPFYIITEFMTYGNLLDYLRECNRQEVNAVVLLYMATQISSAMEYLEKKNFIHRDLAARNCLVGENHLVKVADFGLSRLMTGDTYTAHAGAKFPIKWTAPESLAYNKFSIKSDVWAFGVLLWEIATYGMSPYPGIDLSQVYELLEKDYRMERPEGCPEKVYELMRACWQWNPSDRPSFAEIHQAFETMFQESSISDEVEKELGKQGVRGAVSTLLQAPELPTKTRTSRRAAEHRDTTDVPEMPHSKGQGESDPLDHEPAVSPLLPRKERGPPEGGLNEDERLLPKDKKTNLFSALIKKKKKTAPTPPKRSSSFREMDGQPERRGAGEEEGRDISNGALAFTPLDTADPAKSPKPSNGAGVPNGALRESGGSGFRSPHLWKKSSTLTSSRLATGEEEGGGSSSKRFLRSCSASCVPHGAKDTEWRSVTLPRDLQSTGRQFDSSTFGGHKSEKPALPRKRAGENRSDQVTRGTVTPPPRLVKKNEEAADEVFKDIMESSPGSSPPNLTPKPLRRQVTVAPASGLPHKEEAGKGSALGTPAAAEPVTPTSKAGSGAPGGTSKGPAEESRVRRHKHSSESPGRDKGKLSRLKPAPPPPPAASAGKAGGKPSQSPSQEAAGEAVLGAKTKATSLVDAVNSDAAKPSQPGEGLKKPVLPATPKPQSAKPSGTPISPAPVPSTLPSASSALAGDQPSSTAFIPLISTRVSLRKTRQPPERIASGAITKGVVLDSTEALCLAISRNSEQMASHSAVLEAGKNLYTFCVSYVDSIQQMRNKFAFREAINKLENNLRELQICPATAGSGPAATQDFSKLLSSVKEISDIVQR
AURKB (human), sequence (Q96GD4 whole entry, looked up): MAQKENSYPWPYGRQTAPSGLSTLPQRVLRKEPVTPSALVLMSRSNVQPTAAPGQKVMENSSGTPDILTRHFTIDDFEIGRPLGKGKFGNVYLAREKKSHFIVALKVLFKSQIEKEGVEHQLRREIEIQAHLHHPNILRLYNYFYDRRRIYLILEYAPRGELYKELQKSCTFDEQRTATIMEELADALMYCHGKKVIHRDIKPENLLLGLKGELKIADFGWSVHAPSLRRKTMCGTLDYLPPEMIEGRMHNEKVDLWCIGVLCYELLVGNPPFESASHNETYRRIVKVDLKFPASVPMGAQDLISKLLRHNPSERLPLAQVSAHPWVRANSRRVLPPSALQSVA

residual activity (IKBKB (human); compound 1.0 µM): 87% | residual activity (IKBKB (human); compound 10.0 µM): 67% | residual activity (PRKCA (human); compound 1.0 µM): 93% | residual activity (PRKCA (human); compound 10.0 µM): 86% | residual activity (CSNK1G2 (human); compound 1.0 µM): 64% | residual activity (CSNK1G2 (human); compound 10.0 µM): 20% | residual activity (DAPK1 (human); compound 1.0 µM): 91% | residual activity (DAPK1 (human); compound 10.0 µM): 67% | residual activity (WNK2 (human); compound 1.0 µM): 90% | residual activity (WNK2 (human); compound 10.0 µM): 55% | residual activity (NTRK2 (human); compound 1.0 µM): 0% | residual activity (NTRK2 (human); compound 10.0 µM): 0% | residual activity (EPHB3 (human); compound 1.0 µM): 105% | residual activity (EPHB3 (human); compound 10.0 µM): 103% | residual activity (PAK6 (human); compound 1.0 µM): 63% | residual activity (PAK6 (human); compound 10.0 µM): 37% | residual activity ([1]; compound 1.0 µM): 92% | residual activity ([1]; compound 10.0 µM): 11% | residual activity (TSSK2 (human); compound 1.0 µM): 95% | residual activity (TSSK2 (human); compound 10.0 µM): 78% | residual activity (STK17A (human); compound 1.0 µM): 6% | residual activity (STK17A (human); compound 10.0 µM): 4% | residual activity (PLK2 (human); compound 1.0 µM): 97% | residual activity (PLK2 (human); compound 10.0 µM): 82% | residual activity (PTK6 (human); compound 1.0 µM): 91% | residual activity (PTK6 (human); compound 10.0 µM): 23% | residual activity (MST1R (human); compound 1.0 µM): 86% | residual activity (MST1R (human); compound 10.0 µM): 71% | residual activity (MAPK12 (human); compound 1.0 µM): 95% | residual activity (MAPK12 (human); compound 10.0 µM): 84% | residual activity (RET (human); compound 1.0 µM): 1% | residual activity (RET (human); compound 10.0 µM): 0% | residual activity (MTOR (human); compound 1.0 µM): 100% | residual activity (MTOR (human); compound 10.0 µM): 98% | residual activity (MAPK8 (human); compound 1.0 µM): 63% | residual activity (MAPK8 (human); compound 10.0 µM): 70% | residual activity (ZAP70 (human); compound 1.0 µM): 79% | residual activity (ZAP70 (human); compound 10.0 µM): 91% | residual activity (MUSK (human); compound 1.0 µM): 58% | residual activity (MUSK (human); compound 10.0 µM): 5% | residual activity (TBK1 (human); compound 1.0 µM): 9% | residual activity (TBK1 (human); compound 10.0 µM): 1% | residual activity (GCK (human); compound 1.0 µM): 13% | residual activity (GCK (human); compound 10.0 µM): 1% | residual activity (BMX (human); compound 1.0 µM): 21% | residual activity (BMX (human); compound 10.0 µM): 4% | residual activity (CDK5 CDK5R1 p25 (human); compound 1.0 µM): 3% | residual activity (CDK5 CDK5R1 p25 (human); compound 10.0 µM): 2% | residual activity (ABL1 (human); compound 1.0 µM): 49% | residual activity (ABL1 (human); compound 10.0 µM): 16% | residual activity (CDC42BPA (human); compound 1.0 µM): 142% | residual activity (CDC42BPA (human); compound 10.0 µM): 135% | residual activity (PTK2 (human); compound 1.0 µM): 39% | residual activity (PTK2 (human); compound 10.0 µM): 2% | residual activity (KIT (human); compound 1.0 µM): 20% | residual activity (KIT (human); compound 10.0 µM): 2% | residual activity (GRK7 (human); compound 1.0 µM): 73% | residual activity (GRK7 (human); compound 10.0 µM): 18% | residual activity (RIPK2 (human); compound 1.0 µM): 60% | residual activity (RIPK2 (human); compound 10.0 µM): 27% | residual activity (AURKB (human); compound 1.0 µM): 1% | residual activity (AURKB (human); compound 10.0 µM): -2% | residual activity (CSK (human); compound 1.0 µM): 101% | residual activity (CSK (human); compound 10.0 µM): 78% | residual activity (PRKCD (human); compound 1.0 µM): 85% | residual activity (PRKCD (human); compound 10.0 µM): 80%
SMILES: O=C1Nc2ccccc2/C1=C1\Nc2ccccc2\C1=N/O

Source: the kinase profiling compilation of Christmann-Franck et al. (2016)
